Values quoted from earlier work, collected in PMC3629230, “Permeability Enhancers Dramatically Increase Zanamivir Absolute Bioavailability in Rats: Implications for an Orally Bioavailable Influenza Treatment” (PLoS ONE, 2013).

Key:
flu strains = details: cited from earlier work
seasonal H1N1 = tested on: seasonal H1N1; set-up: method as in earlier work; details: 2009 tests; cited from earlier work
pandemic flu strains = tested on: pandemic flu strains; set-up: method as in earlier work; details: 2009 tests; cited from earlier work

Row | SMILES | Resistance (flu strains) | Strains resistant (seasonal H1N1) [%] | Strains resistant (pandemic flu strains) [%]
1 | CC(=O)N[C@H]1[C@H]([C@H](O)[C@H](O)CO)OC(C(=O)O)=C[C@@H]1N=C(N)N [Zanamivir, zanamivir] | has not been observed | – | –
2 | CCOC(=O)C1=C[C@@H](OC(CC)CC)[C@H](NC(C)=O)[C@@H](N)C1 [oseltamivir] | – | 99.6 | 0.5
